Patent publication US5837852A, “Capped nucleic acid oligomers that inhibit cap-dependent transcription of the influenza virus endonuclease” (priority 1993, dated 1998)
“Also recorded” adds a separate entry of the source. {m7Gppp} = cap: 7-methylguanosine joined 5'-5' by triphosphate; m = 2'-O-methyl; r = 2'-OH (RNA); {P} = phosphate

Tests used:
[1] = test system: viral cores; conditions: glycerol gradients, reference 3; cited from earlier work
[2] = test system: viral polymerase (viral cores); assay: Elongation (priming of transcription) of capped RNA fragments by viral cores with NTPs; format: biochemical, Influenza A/PR/8 virus (H1N1); conditions: with NTPs (ATP, CTP, GTP)
[3] = test system: influenza virus endonuclease (viral polymerase in viral cores); assay: Viral endonuclease cleavage reaction of capped RNA substrates with viral cores; format: biochemical, Influenza A/PR/8 virus (H1N1); conditions: for endonucleolytic cleavage by viral cores (in words): absence of nucleotide triphosphates; for dephosphorylation of the 3' phosphate by the viral polymerase (in words): 3'-phosphate terminated fragments with viral cores

| Substance | elongation / priming of transcription by viral cores (in words) [2] | endonucleolytic cleavage by viral cores (in words) [3] | further results |
| --- | --- | --- | --- |
| m^7 GpppGm |  |  | co-sedimentation with viral cores [1]: did not |
| m^7 GpppGmAAUACU | nor were they able to prime transcription | neither cleaved |  |
| m^7 GpppGmAAUACUC | nor were they able to prime transcription | neither cleaved |  |
| m^7 GpppGmAAUACUCA |  |  | elongation / priming of transcription by viral cores (in words) ([2]; listed as A9-OH): inefficiently elongated; also recorded: appeared to promote an abortive elongation product or primed transcription very inefficiently |
| m^7 GpppGmAAUACUCAA (GAAUACUCAA; sugars from the 5' end m1 r9, 5' {m7Gppp}, backbone not given here) [ID; NO] | directly primed elongation |  |  |
| m^7 GpppGmAAUACUCAAG-OH (GAAUACUCAAG; sugars from the 5' end m1 r10, 5' {m7Gppp}, backbone not given here) [ID; NO; 5, capped 11-nucleotide cleavage product] |  | did not result in further cleavage | elongation / priming of transcription by viral cores (in words) ([2]; listed as G11-OH): could function as a primer for viral transcription; also recorded: able to prime with an efficiency similar to that obtained with the full-length substrate |
| m^7 GpppGmAAUACUCAAGC (GAAUACUCAAGC; sugars from the 5' end m1 r11, 5' {m7Gppp}, backbone not given here) [ID; NO] | appeared to prime transcription without cleavage | a minor amount of secondary cleavage to a putative A9-OH fragment occurred |  |
| m^7 GpppGmAAUACUCAAGCUp (GAAUACUCAAGCU; sugars from the 5' end m1 r12, 5' {m7Gppp}, 3' {P}, backbone not given here) [ID; NO] | normal elongation is observed | cleaved in the absence of ribonucleotides to an 11 base primer |  |
| m^7 GpppGmAAUACUCAAGCp (GAAUACUCAAGC; sugars from the 5' end m1 r11, 5' {m7Gppp}, 3' {P}, backbone not given here) [ID; NO] | A small amount of elongation was observed | little cleavage of the C12-P fragment to the G11-OH fragment occurred | dephosphorylation of the 3' phosphate by the viral polymerase (in words) [3]: little if any dephosphorylation |
| m^7 GpppGmAAUACUCAAGGp |  | cleavage to an 11-base primer resulted |  |
| m^7 GpppGmAAUACUCAAGp (GAAUACUCAAG; sugars from the 5' end m1 r10, 5' {m7Gppp}, 3' {P}, backbone not given here) [ID; NO] | little elongation | A minor amount of G11-P fragment was cleaved to the A9-OH fragment | elongation / priming of transcription by viral cores (in words) ([2]; listed as G11-p): unable to efficiently prime transcription; dephosphorylation of the 3' phosphate by the viral polymerase (in words) [3]: essentially no cleavage of the 3' phosphate; also recorded: little if any dephosphorylation; dephosphorylation of the 3' phosphate by the viral polymerase (in words) ([3]; listed as G11-p): not converted to the G11-OH fragment |
| m^7 GpppGmAAUACUCAAp (GAAUACUCAA; sugars from the 5' end m1 r9, 5' {m7Gppp}, 3' {P}, backbone not given here) [ID; NO] | little elongation |  | dephosphorylation of the 3' phosphate by the viral polymerase (in words) [3]: essentially no cleavage of the 3' phosphate; also recorded: little if any dephosphorylation |
| m^7 GpppGmUUUUUAp |  |  | co-sedimentation with viral cores [1]: co-sedimented efficiently |
| m^7 GpppGmUp |  |  | co-sedimentation with viral cores [1]: did not |
